Test results as given in PubChem BioAssay AID256 (DTP/NCI, 2004).
Toxic doses and inconclusive results are not listed.

System: CD2F1 mice, L1210 leukemia ip, survival T/C
Test: NCI In Vivo Anticancer Drug Screen. Data for tumor model L1210 Leukemia (intraperitoneal) in CD2F1 (CDF1) mice
Conditions: higher = longer survival
How it was run: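 Tumor-bearing mice (transplanted tumor) were split into treated and vehicle control groups, and the measured endpoint of each treated group was divided by that of its vehicle controls.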

[1] = endpoint: mean survival time, dose: 100.0 mg/kg/injection, schedule: Q01DX009 (ip), vehicle: saline with Tween-80
[2] = endpoint: mean survival time, dose: 200.0 mg/kg/injection, schedule: Q01DX009 (ip), vehicle: saline with Tween-80
[3] = endpoint: mean survival time, dose: 400.0 mg/kg/injection, schedule: Q01DX009 (ip), vehicle: saline with Tween-80
[4] = endpoint: mean survival time, dose: 12.5 mg/kg/injection, schedule: Q01DX009 (ip), vehicle: saline with Tween-80
[5] = endpoint: mean survival time, dose: 25.0 mg/kg/injection, schedule: Q01DX009 (ip), vehicle: saline with Tween-80
[6] = endpoint: mean survival time, dose: 50.0 mg/kg/injection, schedule: Q01DX009 (ip), vehicle: saline with Tween-80

With `NC(=S)N/N=C/c1ncccc1O` the T/C (endpoint: mean survival time, dose: 3.13 mg/kg/injection, schedule: Q03HX024 (ip), vehicle: saline) was 117 % of control, the T/C (endpoint: mean survival time, dose: 50.0 mg/kg/injection, schedule: Q03HX024 (ip), vehicle: saline) was 102 % of control and the T/C (endpoint: median survival time, dose: 21.8 mg/kg/injection, schedule: Q03HX008 (ip), vehicle: suspension in saline) was 156 % of control. The T/C (endpoint: median survival time, dose: 32.5 mg/kg/injection, schedule: Q03HX008 (ip), vehicle: suspension in saline) was 164 % of control, the T/C (endpoint: median survival time, dose: 45.0 mg/kg/injection, schedule: Q04DX003 (ip), vehicle: suspension in saline) was 121 % of control and the T/C (endpoint: median survival time, dose: 48.5 mg/kg/injection, schedule: Q03HX008 (ip), vehicle: suspension in saline) was 174 % of control. For the same compound, the T/C (endpoint: median survival time, dose: 50.0 mg/kg/injection, schedule: Q01DX005 (ip), vehicle: saline) was 156 % of control, the T/C (endpoint: median survival time, dose: 72.4 mg/kg/injection, schedule: Q03HX008 (ip), vehicle: suspension in saline) was 109 % of control and the T/C (endpoint: median survival time, dose: 90.0 mg/kg/injection, schedule: Q04DX003 (ip), vehicle: suspension in saline) was 122 % of control. The T/C (endpoint: median survival time, dose: 100.0 mg/kg/injection, schedule: Q01DX005 (ip), vehicle: suspension in saline) was 150 % of control, the T/C (endpoint: median survival time, dose: 108.0 mg/kg/injection, schedule: Q04DX003 (ip), vehicle: suspension in saline) was 152 % of control and the T/C (endpoint: median survival time, dose: 180.0 mg/kg/injection, schedule: Q03HX024 (ip), vehicle: saline) was 86 % of control. The T/C (endpoint: median survival time, dose: 200.0 mg/kg/injection, schedule: Q01DX005 (ip), vehicle: suspension in saline) was 117 % of control, the T/C (endpoint: median survival time, dose: 241.0 mg/kg/injection, schedule: Q04DX003 (ip), vehicle: suspension in saline) was 151 % of control and the T/C (endpoint: median survival time, dose: 360.0 mg/kg/injection, schedule: Q04DX003 (ip), vehicle: suspension in saline) was 161 % of control. The T/C (endpoint: median survival time, dose: 537.0 mg/kg/injection, schedule: Q04DX003 (ip), vehicle: suspension in saline) was 109 % of control and the T/C (endpoint: median survival time, dose: 720.0 mg/kg/injection, schedule: Q04DX003 (ip), vehicle: suspension in saline) was 119 % of control.

`CCN(CC)C(=O)CS(=O)(=O)c1ccc(C)cc1` was tested, and the T/C [1] was 100 % of control, the T/C [2] was 100 % of control and the T/C [3] was 101 % of control.

`O=C1OCSc2ccccc21` was tested, and the T/C (endpoint: mean survival time, dose: 25.0 mg/kg/injection, schedule: Q01DX009 (ip), vehicle: saline sonified) was 108 % of control, the T/C (endpoint: mean survival time, dose: 50.0 mg/kg/injection, schedule: Q01DX009 (ip), vehicle: saline sonified) was 102 % of control and the T/C (endpoint: mean survival time, dose: 100.0 mg/kg/injection, schedule: Q01DX009 (ip), vehicle: saline sonified) was 102 % of control. The T/C (endpoint: mean survival time, dose: 100.0 mg/kg/injection, schedule: Q04DX003 (ip), vehicle: saline with Tween-80) was 100 % of control, the T/C (endpoint: mean survival time, dose: 200.0 mg/kg/injection, schedule: Q04DX003 (ip), vehicle: saline with Tween-80) was 101 % of control and the T/C (endpoint: mean survival time, dose: 400.0 mg/kg/injection, schedule: Q04DX003 (ip), vehicle: saline with Tween-80) was 97 % of control.

In the case of `O=C1OC(=O)c2c1ccc1ccc(Cl)cc21`, the T/C [1] was 102 % of control and the T/C [2] was 96 % of control.

`O=C(N/N=C/c1cccc([N+](=O)[O-])c1)c1ccccc1` was tested, and the T/C [1] was 107 % of control, the T/C [2] was 102 % of control and the T/C [3] was 94 % of control.

`C#CC1(c2ccccc2)OCCO1` was tested, and the T/C [4] was 97 % of control, the T/C [5] was 97 % of control and the T/C [6] was 94 % of control.

In the case of `O=C(O)CC(O)(CC(=O)O)C(=O)O.[Sn]`, the T/C (endpoint: mean survival time, dose: 6.25 mg/kg/injection, schedule: Q04DX003 (ip), vehicle: saline with Tween-80) was 98 % of control, the T/C (endpoint: mean survival time, dose: 12.5 mg/kg/injection, schedule: Q04DX003 (ip), vehicle: saline with Tween-80) was 90 % of control and the T/C (endpoint: mean survival time, dose: 25.0 mg/kg/injection, schedule: Q04DX003 (ip), vehicle: saline with Tween-80) was 102 % of control.

In the case of `CC(C)=CCC/C(C)=C/COc1ccc(/C=C2/C(=O)N(O)[C@@H](C)C(=O)N2O)cc1`, the T/C (endpoint: mean survival time, dose: 1.56 mg/kg/injection, schedule: Q01DX009 (ip), vehicle: saline with Tween-80) was 101 % of control, the T/C (endpoint: mean survival time, dose: 3.12 mg/kg/injection, schedule: Q01DX009 (ip), vehicle: saline with Tween-80) was 96 % of control and the T/C (endpoint: mean survival time, dose: 3.12 mg/kg/injection, schedule: Q01DX009 (ip), vehicle: saline) was 94 % of control. The T/C (endpoint: mean survival time, dose: 6.25 mg/kg/injection, schedule: Q01DX009 (ip), vehicle: saline with Tween-80) was 101 % of control, the T/C (endpoint: mean survival time, dose: 6.25 mg/kg/injection, schedule: Q01DX009 (ip), vehicle: saline) was 96 % of control and the T/C [4] was 101 % of control. The T/C (endpoint: mean survival time, dose: 12.5 mg/kg/injection, schedule: Q01DX009 (ip), vehicle: saline) was 100 % of control, the T/C [5] was 106 % of control and the T/C (endpoint: mean survival time, dose: 25.0 mg/kg/injection, schedule: Q01DX009 (ip), vehicle: saline) was 108 % of control. For the same compound, the T/C [6] was 112 % of control, the T/C (endpoint: mean survival time, dose: 50.0 mg/kg/injection, schedule: Q01DX009 (ip), vehicle: saline) was 100 % of control and the T/C (endpoint: mean survival time, dose: 100.0 mg/kg/injection, schedule: Q01DX009 (ip), vehicle: saline) was 100 % of control.
